# Biological target: T1, factor D (Homo sapiens, UniProt P00746)
# T1 construct: made in house; host or cells: E. coli
# Assay: factor D inhibition assay of Biological Example 2
# Format: biochemical
# T1 sequence (P00746 26-253): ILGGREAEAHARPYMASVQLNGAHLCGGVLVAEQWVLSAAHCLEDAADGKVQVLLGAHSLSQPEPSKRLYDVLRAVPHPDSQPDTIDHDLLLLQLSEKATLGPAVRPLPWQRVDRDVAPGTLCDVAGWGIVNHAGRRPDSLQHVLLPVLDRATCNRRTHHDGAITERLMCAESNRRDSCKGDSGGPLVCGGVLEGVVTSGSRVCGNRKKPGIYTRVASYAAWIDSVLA
row,Compound,IC50
1,"C[C@@H](N)c1cccc(-c2ccc(Cl)c(COc3ccccc3CC(=O)O)c2)c1F [Example 275, (R)-2-(2-((3′-(1-aminoethyl)-4-chloro-2′-fluoro-[1,1′-biphenyl]-3-yl)methoxy)phenyl)acetic acid]",0.013 µM
2,"CC(=O)NC(C(=O)O)c1ccccc1OCc1cccc(-c2cccc(CN)c2)c1 (centres unmarked) [Example 296, 2-acetamido-2-(2-((3′-(aminomethyl)-[1,1′-biphenyl]-3-yl)methoxy)phenyl)acetic acid]",2.41 µM
3,"N[C@H](CCO)c1cccc(-c2cc(COc3ccccc3CC(=O)O)cc(NCC3CC3)c2)c1 [Example 94-C, (R)-2-(2-((3′-(1-amino-3-hydroxypropyl)-5-((cyclopropylmethyl)amino)-[1,1′-biphenyl]-3-yl)methoxy)phenyl)acetic acid]",0.027 µM
4,"CC(O)c1cc(COc2ccccc2CC(=O)O)cc(-c2cccc([C@H](N)CO)c2)c1 (mixture of isomers) [116-E a), 2-(2-((3′-((S)-1-amino-2-hydroxyethyl)-5-(1-hydroxyethyl)-[1,1′-biphenyl]-3-yl)methoxy)phenyl)acetic acid]",0.009 µM
5,C[C@@H](N)c1cccc(-c2cc(COc3ccccc3CC(=O)O)cc(NC3CCCC3)c2)c1F [Example 216-U],0.005 µM
6,NC(CF)c1cccc(-c2cc(COc3ccccc3CC(=O)O)cc(NCC3CCCC3)c2)c1F (centres unmarked) [Example 216-E],0.006 µM
7,"CCOC(=O)Cc1ccccc1OCc1cccc(-c2cccc([C@H](N)CO)c2)c1 [Example 268-C, (S)-Ethyl 2-(2-((3′-(1-amino-2-hydroxyethyl)-[1,1′-biphenyl]-3-yl)methoxy)phenyl)acetate]",54.8 µM
8,"C[C@@H](N)c1cccc(-c2ccc3c(c2)N(Cc2ccccc2CC(=O)O)CCC3)c1F [Example 219-D, (R)-2-(2-((7-(3-(1-Aminoethyl)-2-fluorophenyl)-3,4-dihydroquinolin-1(2H)-yl)methyl)phenyl)acetic acid]",0.061 µM
9,O=C(O)Cc1ccccc1OCc1cccc(-c2cccc(-c3ncc[nH]3)c2)c1 [Example 138-F],2.19 µM
10,"N[C@H](CO)c1cccc(-c2cccc(COc3ccccc3CC(=O)O)c2)c1Cl [Example 141-B, (S)-2-(2-((3′-(1-Amino-2-hydroxyethyl)-2′-chloro-[1,1′-biphenyl]-3-yl)methoxy)phenyl)acetic acid]",0.014 µM
11,C[C@@H](N)c1cccc(-c2cc(COCC(F)(F)F)cc(COc3ccccc3CC(=O)O)c2)c1F [Example 120-M],0.011 µM
12,CC(C)OCc1cc(COc2ccccc2CC(=O)O)cc(-c2cccc([C@@H](C)N)c2)c1 [Example 120-P],0.007 µM
13,"C[C@@H](N)c1cccc(-c2cc(COc3ccccc3CC(=O)O)cc(OCc3ccccn3)c2)c1F [Example 213, (R)-2-(2-((3′-(1-Aminoethyl)-2′-fluoro-5-(pyridin-2-ylmethoxy)-[1,1′-biphenyl]-3-yl)methoxy)phenyl)acetic acid]",0.005 µM
14,"N[C@H](CO)c1cccc(-c2cc(COc3ccccc3CC(=O)O)cc(OCC3CC3)c2)c1 [Example 147-B, (S)-2-(2-((3′-(1-Amino-2-hydroxyethyl)-5-(cyclopropylmethoxy)-[1,1′-biphenyl]-3-yl)methoxy)phenyl)acetic acid]",0.005 µM
15,"N[C@H](CO)c1cccc(-c2ccc3c(c2)C(Oc2ccccc2CC(=O)O)CC3)c1 (mixture of isomers) [Example 172, (±)-2-(2-((6-(3-((S)-1-Amino-2-hydroxyethyl)phenyl)-2,3-dihydro-1H-inden-1-yl)oxy)phenyl)acetic acid]",5.88 µM
16,"Cc1cc(-c2cccc([C@@H](C)N)c2F)cc(COc2ccccc2CC(=O)O)c1C [Example 283, (R)-2-(2-((3′-(1-aminoethyl)-2′-fluoro-4,5-dimethyl-[1,1′-biphenyl]-3-yl)methoxy)phenyl)acetic acid]",0.013 µM
17,"C[C@@H](N)c1cccc(-c2cc(COc3ccccc3CC(=O)O)cc(OCC3CCCN3)c2)c1 (stereo partly drawn) [Example 267, 2-(2-((3′-((R)-1-aminoethyl)-5-(pyrrolidin-2-ylmethoxy)-[1,1′-biphenyl]-3-yl)methoxy)phenyl)acetic acid]",0.039 µM
18,C[C@@H](N)c1cccc(-c2cc(COc3ccccc3CC(=O)O)cc(OCC3CCCC3)c2)c1F [Example 214-H],0.7 µM
19,"C[C@@H](N)c1cccc(-c2cc(CCC3CCOCC3)cc(COc3ccccc3CC(=O)O)c2)c1F [Example 248, (R)-2-(2-((3′-(1-aminoethyl)-2′-fluoro-5-(2-(tetrahydro-2H-pyran-4-yl)ethyl)-[1,1′-biphenyl]-3-yl)methoxy)phenyl)acetic acid]",0.14 µM
20,"NC(CF)c1cccc(-c2cc(COc3ccccc3CC(=O)O)cc(OC[C@H]3CCCO3)c2)c1F (single isomer, unassigned; (-)) [Example 212-A]",0.006 µM
21,NCc1cccc(-c2cc(COc3ccccc3CC(=O)O)cc(OC[C@H]3CCCO3)c2)n1 [Example 138-M],0.005 µM
22,"C[C@@H](N)c1cccc(-c2cc(COc3ccccc3CC(=O)O)cc(C(O)C(F)(F)F)c2)c1 (single isomer, unassigned) [116-H b) (tr = 4.6 min)]",0.015 µM
23,"CNC(CO)c1cccc(-c2cccc(COc3ccccc3CC(=O)O)c2)c1 (racemic) [Example 171, (±)-2-(2-((3′-(2-Hydroxy-1-(methylamino)ethyl)-[1,1′-biphenyl]-3-yl)methoxy)phenyl)acetic acid]",2.54 µM
24,CCOCc1cc(COc2ccccc2CC(=O)O)cc(-c2cccc([C@@H](C)N)c2)c1 [Example 120-R],0.05 µM

# Next, values leading:
row,IC50,Compound
1,0.003 µM,"C[C@@H](N)c1cccc(-c2cc(COc3ccccc3CC(=O)O)cc(-c3cnn(C)c3)c2)c1F [Example 230, (R)-2-(2-((3′-(1-aminoethyl)-2′-fluoro-5-(1-methyl-1H-pyrazol-4-yl)-[1,1′-biphenyl]-3-yl)methoxy)phenyl)acetic acid]"
2,0.011 µM,"C[C@@H](N)c1cccc(-c2cc(COc3ccccc3CC(=O)O)cc(OCC(F)(F)F)c2)c1F [Example 231-B, (R)-2-(2-((3′-(1-aminoethyl)-2′-fluoro-5-(2,2,2-trifluoroethoxy)-[1,1′-biphenyl]-3-yl)methoxy)phenyl)acetic acid]"
3,0.011 µM,"CCOc1cc(COc2ccccc2CC(=O)O)cc(-c2cccc(C(N)CF)c2F)c1 (centres unmarked) [Example 258-C, 2-(2-((3′-(1-amino-2-fluoroethyl)-5-ethoxy-2′-fluoro-[1,1′-biphenyl]-3-yl)methoxy)phenyl)acetic acid]"
4,0.143 µM,"C[C@@H](N)c1cccc(-c2cc(OC[C@@H]3CCCO3)cc(C(=O)Nc3ccccc3CC(=O)O)c2)c1 [Example 80-C, 2-(2-(3′-((R)-1-Aminoethyl)-5-(((S)-tetrahydrofuran-2-yl)methoxy)-[1,1′-biphenyl]-3-ylcarboxamido)phenyl)acetic acid]"
5,0.013 µM,C[C@@H](N)c1cccc(-c2cc(COc3ccccc3CC(=O)O)cc(NCC(F)F)c2)c1F [Example 216-M]
6,0.517 µM,NCc1cc(F)cc(-c2cccc(C(=O)Nc3ccc(F)cc3CC(=O)O)c2)c1 [Example 21-J]
7,0.396 µM,"N=C(N)c1cccc(-c2cccc(C(=O)Nc3ccccc3CC(=O)O)c2)c1 [Example 10-B, 2-(2-(3′-Carbamimidoyl-[1,1′-biphenyl]-3-ylcarboxamido)phenyl)acetic acid]"
8,2.27 µM,"NCc1cc(F)cc(-c2cccc(S(=O)(=O)Nc3ccccc3CC(=O)O)c2)c1 [Example 49, 2-(2-(3′-(aminomethyl)-5′-fluoro-[1,1′-biphenyl]-3-ylsulfonamido)phenyl)acetic acid]"
9,0.016 µM,"CNc1sc(-c2cc(F)cc(CN)c2)nc1C(=O)Nc1ccccc1CC(=O)O [Example 31-B, 2-(2-(2-(3-(aminomethyl)-5-fluorophenyl)-5-(methylamino)thiazole-4-carboxamido)phenyl)acetic acid]"
10,80.2 µM,"NCc1cccc(-c2cccc(C(=O)Nc3ccccc3CC(N)=O)c2)c1 [Example 3-B, N-(2-(2-Amino-2-oxoethyl)phenyl)-3′-(aminomethyl)-[1,1′-biphenyl]-3-carboxamide]"
11,0.028 µM,NCc1cccc(-c2cccc(COc3ccccc3CC(=O)O)c2)n1 [Example 138-N]
12,0.004 µM,"NCc1cccc(-c2cc(COc3ccccc3CC(=O)O)c(F)c(NCC3CCCO3)c2)c1 (racemic) [154-C b), (±)-2-(2-((3′-(aminomethyl)-4-fluoro-5-(((tetrahydrofuran-2-yl)methyl)amino)-[1,1′-biphenyl]-3-yl)methoxy)phenyl)acetic acid]"
13,0.015 µM,"NCc1cccc(-c2cc(CCO)cc(COc3ccccc3CC(=O)O)c2)c1 [Example 105-C, 2-(2-((3′-(Aminomethyl)-5-(2-hydroxyethyl)-[1,1′-biphenyl]-3-yl)methoxy)phenyl)acetic acid]"
14,0.94 µM,Cc1cccc(NC(=O)c2cccc(-c3cc(F)cc(CN)c3)c2)c1CC(=O)O [Example 21-H]
15,0.014 µM,NCc1cc(F)cc(-c2cc(NC3CCOCC3)cc(C(=O)Nc3ccccc3CC(=O)O)c2)c1 [Example 79-D]
16,8.79 µM,"NCc1cc(F)cc(-c2cccc(C(=O)Nc3ccc(Br)cc3CC(=O)O)c2)c1 [Example 18-B, 2-(2-(3′-(Aminomethyl)-5′-fluoro-[1,1′-biphenyl]-3-ylcarboxamido)-5-bromophenyl)acetic acid]"
17,0.099 µM,C[C@@H](N)c1cccc(-c2cccc(COc3ccccc3CC(=O)O)c2)c1F [Example 138-L]
18,0.02 µM,"NCc1cc(F)cc(-c2cc(OCc3ncccn3)cc(C(=O)Nc3ccccc3CC(=O)O)c2)c1 [Example 68, 2-(2-(3′-(Aminomethyl)-5′-fluoro-5-(pyrimidin-2-ylmethoxy)-[1,1′-biphenyl]-3-ylcarboxamido)phenyl)acetic acid]"
19,0.026 µM,"Cn1ccc(COc2cc(C(=O)Nc3ccccc3CC(=O)O)cc(-c3cc(F)cc(CN)c3)c2)n1 [Example 69, 2-(2-(3′-(Aminomethyl)-5′-fluoro-5-((1-methyl-1H-pyrazol-3-yl)methoxy)-[1,1′-biphenyl]-3-ylcarboxamido)phenyl)acetic acid]"
20,0.013 µM,"NCc1cccc(-c2cc(C(=O)Nc3ccccc3CC(=O)O)nc(-c3cccc(CN)c3)c2)c1 [Example 42, 2-(2-(4,6-bis(3-(Aminomethyl)phenyl)picolinamido)phenyl)acetic acid]"

# Source: patent publication US20160145247A1, “Aminomethyl-Biaryl Derivatives Complement Factor D inhibitors and uses thereof” (NOVARTIS AG, priority 2013, published 2016)
